Data from PubChem BioAssay (NCI).
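Following 48 hours of exposure in 96-well plates, responses at five concentrations were used to interpolate endpoints linearly. At the TGI there is no net growth.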

Legend:
Test in all cases: NCI tumour cell line growth inhibition, 48 h
HOP-62 NSCLC = test system: HOP-62 NSCLC
786-0 renal = test system: 786-0 renal
LOX IMVI melanoma = test system: LOX IMVI melanoma
SK-MEL-28 melanoma = test system: SK-MEL-28 melanoma
SF-539 CNS = test system: SF-539 CNS
NCI-H522 lung = test system: NCI-H522 lung
SF-295 CNS = test system: SF-295 CNS
HCT-116 colon = test system: HCT-116 colon
CCRF-CEM leukemia = test system: CCRF-CEM leukemia
SNB-19 CNS = test system: SNB-19 CNS
SF-268 CNS = test system: SF-268 CNS
RXF 393 renal = test system: RXF 393 renal
UACC-62 melanoma = test system: UACC-62 melanoma
TK-10 renal = test system: TK-10 renal
M14 melanoma = test system: M14 melanoma
HCT-15 colon = test system: HCT-15 colon
SR leukemia = test system: SR leukemia
EKVX NSCLC = test system: EKVX NSCLC
UO-31 renal = test system: UO-31 renal
HCC-2998 colon = test system: HCC-2998 colon
PC-3 prostate = test system: PC-3 prostate
UACC-257 melanoma = test system: UACC-257 melanoma
DU-145 prostate = test system: DU-145 prostate
NCI-H23 lung = test system: NCI-H23 lung
MDA-MB-231 breast = test system: MDA-MB-231 breast
MALME-3M melanoma = test system: MALME-3M melanoma
NCI-H226 lung = test system: NCI-H226 lung
MCF7 breast = test system: MCF7 breast
SN12C renal = test system: SN12C renal
A498 renal = test system: A498 renal
KM12 colon = test system: KM12 colon
SK-MEL-5 melanoma = test system: SK-MEL-5 melanoma
IGROV1 ovarian = test system: IGROV1 ovarian
SNB-75 CNS = test system: SNB-75 CNS
HT29 colon = test system: HT29 colon
NCI/ADR-RES ovarian = test system: NCI/ADR-RES ovarian
T-47D breast = test system: T-47D breast
SK-MEL-2 melanoma = test system: SK-MEL-2 melanoma
BT-549 breast = test system: BT-549 breast
COLO 205 colon = test system: COLO 205 colon
MOLT-4 leukemia = test system: MOLT-4 leukemia
MDA-N = test system: MDA-N
OVCAR-5 ovarian = test system: OVCAR-5 ovarian
OVCAR-8 ovarian = test system: OVCAR-8 ovarian
SW-620 colon = test system: SW-620 colon
MDA-MB-435 = test system: MDA-MB-435
CAKI-1 renal = test system: CAKI-1 renal
ACHN renal = test system: ACHN renal
HL-60(TB) leukemia = test system: HL-60(TB) leukemia
K-562 leukemia = test system: K-562 leukemia
A549 NSCLC = test system: A549 NSCLC
SK-OV-3 ovarian = test system: SK-OV-3 ovarian
HS 578T breast = test system: HS 578T breast
RPMI-8226 leukemia = test system: RPMI-8226 leukemia
U251 CNS = test system: U251 CNS
OVCAR-4 ovarian = test system: OVCAR-4 ovarian
OVCAR-3 ovarian = test system: OVCAR-3 ovarian
NCI-H460 lung = test system: NCI-H460 lung
HOP-92 NSCLC = test system: HOP-92 NSCLC

Nc1cc(F)ccc1CC(=O)O
TGI (HOP-62 NSCLC): > 100 µM
TGI (786-0 renal): > 100 µM
TGI (LOX IMVI melanoma): > 100 µM
TGI (SK-MEL-28 melanoma): > 100 µM
TGI (SF-539 CNS): > 100 µM
TGI (NCI-H522 lung): > 100 µM
TGI (SF-295 CNS): > 100 µM
TGI (HCT-116 colon): > 100 µM
TGI (CCRF-CEM leukemia): > 100 µM
TGI (SNB-19 CNS): > 100 µM
TGI (SF-268 CNS): > 100 µM
TGI (RXF 393 renal): > 100 µM
TGI (UACC-62 melanoma): > 100 µM
TGI (TK-10 renal): > 100 µM
TGI (M14 melanoma): > 100 µM
TGI (HCT-15 colon): > 100 µM
TGI (SR leukemia): > 100 µM
TGI (EKVX NSCLC): > 100 µM
TGI (UO-31 renal): > 100 µM
TGI (HCC-2998 colon): > 100 µM
TGI (PC-3 prostate): > 100 µM
TGI (UACC-257 melanoma): > 100 µM
TGI (DU-145 prostate): > 100 µM
TGI (NCI-H23 lung): > 100 µM
TGI (MDA-MB-231 breast): > 100 µM
TGI (MALME-3M melanoma): > 100 µM
TGI (NCI-H226 lung): > 100 µM
TGI (MCF7 breast): > 100 µM
TGI (SN12C renal): > 100 µM
TGI (A498 renal): > 100 µM
TGI (KM12 colon): > 100 µM
TGI (SK-MEL-5 melanoma): > 100 µM
TGI (IGROV1 ovarian): > 100 µM
TGI (SNB-75 CNS): > 100 µM
TGI (HT29 colon): > 100 µM
TGI (NCI/ADR-RES ovarian): > 100 µM
TGI (T-47D breast): > 100 µM
TGI (SK-MEL-2 melanoma): > 100 µM
TGI (BT-549 breast): > 100 µM
TGI (COLO 205 colon): > 100 µM
TGI (MOLT-4 leukemia): > 100 µM
TGI (MDA-N): > 100 µM
TGI (OVCAR-5 ovarian): > 100 µM
TGI (OVCAR-8 ovarian): > 100 µM
TGI (SW-620 colon): > 100 µM
TGI (MDA-MB-435): > 100 µM
TGI (CAKI-1 renal): > 100 µM
TGI (ACHN renal): > 100 µM
TGI (HL-60(TB) leukemia): > 100 µM
TGI (K-562 leukemia): > 100 µM
TGI (A549 NSCLC): > 100 µM
TGI (SK-OV-3 ovarian): > 100 µM
TGI (HS 578T breast): > 100 µM
TGI (RPMI-8226 leukemia): > 100 µM
TGI (U251 CNS): > 100 µM

COC(=O)CCC(C)[C@H]1CCC2C3C(C[C@H](OC(C)=O)[C@@]21C)[C@@]1(C)CCC2(C[C@H]1C[C@H]3OC(C)=O)OOC1(CCCC1)OO2 (some centres not stated)
TGI (HOP-62 NSCLC): 29.9 µM
TGI (OVCAR-4 ovarian): 87.6 µM
TGI (786-0 renal): > 100 µM
TGI (LOX IMVI melanoma): > 100 µM
TGI (SK-MEL-28 melanoma): > 100 µM
TGI (SF-539 CNS): > 100 µM
TGI (NCI-H522 lung): > 100 µM
TGI (OVCAR-3 ovarian): > 100 µM
TGI (SF-295 CNS): > 100 µM
TGI (HCT-116 colon): > 100 µM
TGI (CCRF-CEM leukemia): > 100 µM
TGI (SNB-19 CNS): > 100 µM
TGI (SF-268 CNS): > 100 µM
TGI (RXF 393 renal): > 100 µM
TGI (TK-10 renal): > 100 µM
TGI (M14 melanoma): > 100 µM
TGI (HCT-15 colon): > 100 µM
TGI (SR leukemia): 15.4 µM
TGI (EKVX NSCLC): 56.4 µM
TGI (UO-31 renal): 27.8 µM
TGI (HCC-2998 colon): > 100 µM
TGI (PC-3 prostate): > 100 µM
TGI (NCI-H460 lung): > 100 µM
TGI (UACC-257 melanoma): > 100 µM
TGI (DU-145 prostate): > 100 µM
TGI (NCI-H23 lung): > 100 µM
TGI (MDA-MB-231 breast): > 100 µM
TGI (MALME-3M melanoma): > 100 µM
TGI (NCI-H226 lung): > 100 µM
TGI (MCF7 breast): > 100 µM
TGI (SN12C renal): > 100 µM
TGI (A498 renal): > 100 µM
TGI (KM12 colon): > 100 µM
TGI (SK-MEL-5 melanoma): > 100 µM
TGI (IGROV1 ovarian): 25.4 µM
TGI (SNB-75 CNS): > 100 µM
TGI (HT29 colon): > 100 µM
TGI (NCI/ADR-RES ovarian): > 100 µM
TGI (T-47D breast): 75 µM
TGI (SK-MEL-2 melanoma): > 100 µM
TGI (BT-549 breast): > 100 µM
TGI (COLO 205 colon): > 100 µM
TGI (MOLT-4 leukemia): > 100 µM
TGI (MDA-N): > 100 µM
TGI (OVCAR-5 ovarian): > 100 µM
TGI (OVCAR-8 ovarian): > 100 µM
TGI (SW-620 colon): > 100 µM
TGI (MDA-MB-435): > 100 µM
TGI (CAKI-1 renal): 92 µM
TGI (ACHN renal): > 100 µM
TGI (HL-60(TB) leukemia): 54.3 µM
TGI (K-562 leukemia): > 100 µM
TGI (A549 NSCLC): > 100 µM
TGI (SK-OV-3 ovarian): > 100 µM
TGI (HS 578T breast): > 100 µM
TGI (RPMI-8226 leukemia): 9.44 µM
TGI (U251 CNS): > 100 µM
TGI (HOP-92 NSCLC): 64.8 µM

O=[N+]([O-])c1ccc(-c2cc(O)c3nc4ccccc4n3c2)cc1
TGI (HOP-62 NSCLC): > 94 µM
TGI (OVCAR-4 ovarian): > 100 µM
TGI (786-0 renal): > 100 µM
TGI (LOX IMVI melanoma): > 100 µM
TGI (SK-MEL-28 melanoma): > 100 µM
TGI (SF-539 CNS): > 100 µM
TGI (NCI-H522 lung): > 100 µM
TGI (OVCAR-3 ovarian): > 100 µM
TGI (SF-295 CNS): > 100 µM
TGI (HCT-116 colon): > 100 µM
TGI (CCRF-CEM leukemia): > 100 µM
TGI (SNB-19 CNS): > 100 µM
TGI (SF-268 CNS): > 100 µM
TGI (RXF 393 renal): > 100 µM
TGI (UACC-62 melanoma): > 31.6 µM
TGI (TK-10 renal): > 100 µM
TGI (M14 melanoma): > 100 µM
TGI (HCT-15 colon): > 100 µM
TGI (SR leukemia): > 100 µM
TGI (EKVX NSCLC): > 100 µM
TGI (UO-31 renal): > 100 µM
TGI (HCC-2998 colon): > 100 µM
TGI (PC-3 prostate): > 100 µM
TGI (NCI-H460 lung): > 100 µM
TGI (UACC-257 melanoma): > 100 µM
TGI (DU-145 prostate): > 100 µM
TGI (NCI-H23 lung): > 100 µM
TGI (MDA-MB-231 breast): > 100 µM
TGI (MALME-3M melanoma): > 100 µM
TGI (NCI-H226 lung): > 100 µM
TGI (MCF7 breast): > 100 µM
TGI (SN12C renal): > 100 µM
TGI (A498 renal): > 100 µM
TGI (KM12 colon): > 100 µM
TGI (SK-MEL-5 melanoma): > 100 µM
TGI (IGROV1 ovarian): > 100 µM
TGI (SNB-75 CNS): > 76.2 µM
TGI (HT29 colon): > 100 µM
TGI (NCI/ADR-RES ovarian): > 100 µM
TGI (T-47D breast): > 100 µM
TGI (SK-MEL-2 melanoma): > 100 µM
TGI (BT-549 breast): > 100 µM
TGI (COLO 205 colon): > 100 µM
TGI (MOLT-4 leukemia): > 100 µM
TGI (MDA-N): > 100 µM
TGI (OVCAR-5 ovarian): > 100 µM
TGI (OVCAR-8 ovarian): > 100 µM
TGI (SW-620 colon): > 100 µM
TGI (MDA-MB-435): > 31.6 µM
TGI (CAKI-1 renal): > 100 µM
TGI (ACHN renal): > 100 µM
TGI (HL-60(TB) leukemia): > 100 µM
TGI (K-562 leukemia): > 100 µM
TGI (A549 NSCLC): > 100 µM
TGI (SK-OV-3 ovarian): > 100 µM
TGI (HS 578T breast): > 100 µM
TGI (RPMI-8226 leukemia): > 100 µM
TGI (U251 CNS): > 100 µM
TGI (HOP-92 NSCLC): > 100 µM
